{"source": "paper PMC6923382", "about": "“Small molecules that inhibit TNF signalling by stabilising an asymmetric form of the trimer” (Nature Communications, 2019)", "key": {"TNF [1]": {"target": "T1, TNF (Homo sapiens, UniProt P01375)", "T1 sequence (P01375 77-233 limits assumed)": "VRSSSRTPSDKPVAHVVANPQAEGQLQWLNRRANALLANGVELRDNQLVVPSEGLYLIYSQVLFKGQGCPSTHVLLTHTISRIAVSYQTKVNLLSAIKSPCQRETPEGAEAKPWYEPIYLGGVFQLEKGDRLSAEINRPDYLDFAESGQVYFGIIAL", "assay": "Biacore binding with and without non-ionic detergent", "parameters": "stabilise an asymmetrical form of the soluble TNF trimer", "details": "0.01% v/v Triton X-100 and 0.025% v/v Tween-80; Biacore T200", "protocol": "Experiments to show any effect of addition of non-ionic detergent were performed on a Biacore, with human TNF on the solid phase and compounds in solution phase in the presence and absence of 0.01% v/v Triton X-100 and 0.025% v/v Tween-80.\nThree Biacore T200s were treated with sodium hypochlorite to remove any traces of detergent. Each machine was equilibrated in either HBS with no detergent (control), HBS:\nTween-P80 (0.025% v/v) or HBS: Triton X-100 (0.01% v/v). Human TNF was tethered to ~ 2000 RU before equilibration in the equivalent control or detergent buffers plus 1% DMSO. […]\nwere fitted to a BIAevaluation T200 1:1 algorithm and the fitted data shown. […]"}, "[2]": {"test_system": "zymosan-induced neutrophil recruitment", "assay": "Zymosan induced neutrophil recruitment in vivo", "parameters": "species or system mouse", "details": "for percent over bar (inhibition of zymosan-induced neutrophil recruitment): Zymosan 1 µg per mouse i.p.; for CD45+ GR-1+ cells/mL in the peritoneal cavity: zymosan, individual mice", "protocol": "Zymosan (R&D Systems) was administered by intraperitoneal injection at a concentration of 1 µg per mouse in PBS (100 µL). […] Four hours after the zymosan challenge, mice were sacrificed and the peritoneal cavity lavaged with 3 mL of FACS buffer. An aliquot (0.3 mL) of lavage fluid was used to assess the number of CD45^+GR1^+ cells by flow cytometry. Briefly, the cells were treated with ACK lysis buffer, washed and suspended in FACS buffer prior to staining with FITC anti-mouse CD45 and PE anti-mouse GR1 (BD Biosciences). Data are shown as mean ± standard error of the number of CD45^+GR-1^+ cells. Statistical significance (*p < 0.05, **p < 0.01, ***p < 0.001 and ****p < 0.0001) was determined using one-way ANOVA with Dunnett’s multiple comparison test."}, "TNF [3]": {"target": "T1, TNF", "assay": "TNF reporter gene assay HEK-293, human TNF", "type": "cell-based", "parameters": "stabilise an asymmetrical form of the soluble TNF trimer", "protocol": "Stimulation of HEK-293 cells by TNF leads to activation of the NF-κB pathway. The HEK-Blue^TM CD40L SEAP (secreted embryonic alkaline phosphatase) reporter cell line used to determine TNF activity (InvivoGen, #hkb-CD40, cells were described as mycoplasma free when purchased and were tested using Mycoalert [Lonza] after each batch of assay vial preparation). […] Cells were added to the compound/stimulus mixture and further incubated for 18 h. SEAP was measured using the colorimetric substrate HEK-Blue Detect^TM or QUANTI-Blue^TM from InvivoGen. […] The IC50 was determined as the point of inflexion between the fitted minimum and maximum of the compound dose response curve, calculated using 4PL fitted curve. Mean IC50s are reported as a mean of at least two experiments."}, "mouse TNF": {"target": "T2, mouse TNF (Mus musculus, UniProt P06804)", "T2 construct": "stabilise an asymmetrical form of the soluble TNF trimer", "T2 sequence (P06804 80-235 limits assumed)": "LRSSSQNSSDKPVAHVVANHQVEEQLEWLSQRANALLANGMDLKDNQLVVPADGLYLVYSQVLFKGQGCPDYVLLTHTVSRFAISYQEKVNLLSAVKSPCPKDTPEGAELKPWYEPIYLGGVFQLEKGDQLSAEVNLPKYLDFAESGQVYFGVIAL", "assay": "Mouse TNF induced neutrophil recruitment in vivo", "details": "for CD45+ GR-1+ cells/mL in the peritoneal cavity: mouse TNF, individual mice", "protocol": "All in vivo studies were reviewed by an internal Ethical Review Body (ERB) and conducted in accordance with the Animals (Scientific Procedures) Act 1986, EU Directive 2010/63/EU. […] Anti-TNFα biologics, CDP571[21] (10 mg/kg) and etanercept (30 mg/kg), diluted in PBS, were dosed intravenously prior to human and mouse TNF challenge. Two hours after the TNF challenge, mice were sacrificed and the peritoneal cavity lavaged with 3 mL of FACS buffer. An aliquot (0.3 mL) of lavage fluid was used to assess the number CD45^+GR1^+ cells by flow cytometry. Briefly, the cells were treated with ACK lysis buffer, washed and suspended in FACS buffer prior to staining with FITC anti-mouse CD45 and PE anti-mouse GR1. Data are shown as mean ± standard error of the number of CD45^+GR-1^+ cells. Statistical significance (*p < 0.05, **p < 0.01, ****p < 0.0001) was determined using one-way ANOVA with Dunnett’s multiple comparison test."}, "[4]": {"test_system": "TNFR1 signalling complex (RIP-1, pNF-κB)", "assay": "TNFR1 immunoprecipitation and signalling assay (Jurkat cells)", "type": "cell-based, human", "details": "10 µM compound pre-incubated 1 h with TNF 25 ng/mL, Western blot", "protocol": "Cells were then lysed for 1 h in cold lysis buffer (1% NP-40, 150 mM NaCl, 50 mM Tris pH 8.0, 25 mM NaF, 1 mM vanadate, 1% phosphatase inhibitor and 0.2% protease inhibitor cocktail), and cell supernatant harvested. TNFR1 immunoprecipitation was performed by incubating supernatant with 5 µg anti-TNFR1 antibody (R&D systems, #AB-225-PB) overnight while rotating at 4 °C, followed by the addition of 20 µL protein G sepharose beads for 1 h rotating at 4 °C. An isotype control sample was incubated with 5 µg goat IgG, instead of anti-TNFR1 antibody to assess how much unspecific binding to the beads occurs during immunoprecipitation. Beads were subsequently washed 3× in lysis buffer, and then the supernatant removed and SDS-PAGE reducing sample buffer added to beads and samples boiled for 10 min. Sample (15 µL) was then loaded on a 4–12% Bis-Tris gel and run for 65 min at 200 V in MOPS buffer. […] RIP-1 ubiquitination (1:250 dilution, BD, #610459) was then detected by Western blotting using anti-mouse-HRP (1:2000 dilution, Cell Signalling Technology, #7076). pNFκB (1:1000 dilution, Cell Signalling Technology, #3033) and GAPDH (1:4000 dilution, Cell Signalling Technology, #5174) were measured in the total cell lysates by Western blotting using anti-rabbit HRP (1:2000 dilution, Cell Signalling Technology, #7074). […]"}}, "note": "“And” between values parts separate entries of the source, which are not always exact repeats. Identical values can stand only once.", "data": [{"molecule": "Cc1ccc(C)c(Cn2c(C(O)c3ccncc3)nc3ccc(-c4cnn(C)c4)cc32)c1", "note": "(centres unmarked) [UCB-9260]", "values": [{"measurement": "effect of non-ionic detergents on binding to human TNF", "setting": "TNF [1]", "result": "does not alter the binding"}, {"measurement": "percent over bar (inhibition of zymosan-induced neutrophil recruitment)", "setting": "[2]; 10 mg/kg p.o., 4 hours, mean ± s.e.", "result": "11±14", "unit": "%"}, {"measurement": "CD45+ GR-1+ cells/mL in the peritoneal cavity", "setting": "[2]; 10mg/kg", "result": "195599.4 cells/mL and 255505.0 cells/mL and 196418.3 cells/mL and 192743.4 cells/mL and 219374.0 cells/mL and 134444.4 cells/mL and 127176.3 cells/mL and 228610.3 cells/mL"}, {"measurement": "percent over bar (inhibition of zymosan-induced neutrophil recruitment)", "setting": "[2]; 30 mg/kg p.o.", "result": "10±16", "unit": "%"}, {"measurement": "CD45+ GR-1+ cells/mL in the peritoneal cavity", "setting": "[2]; 30mg/kg", "result": "308000.0 cells/mL and 169293.1 cells/mL and 102620.5 cells/mL and 226129.3 cells/mL and 167710.1 cells/mL and 175546.4 cells/mL and 66491.2 cells/mL and 345608.1 cells/mL"}, {"measurement": "percent over bar (inhibition of zymosan-induced neutrophil recruitment)", "setting": "[2]; 100 mg/kg p.o.", "result": "51±10", "unit": "%"}, {"measurement": "CD45+ GR-1+ cells/mL in the peritoneal cavity", "setting": "[2]; 100mg/kg", "result": "80477.6 cells/mL and 108548.6 cells/mL and 137240.9 cells/mL and 57696.4 cells/mL and 231185.2 cells/mL and 83347.1 cells/mL and 39698.9 cells/mL and 112119.6 cells/mL"}, {"measurement": "percent over bar (inhibition of zymosan-induced neutrophil recruitment)", "setting": "[2]; 300 mg/kg p.o.", "result": "64±4", "unit": "%"}, {"measurement": "CD45+ GR-1+ cells/mL in the peritoneal cavity", "setting": "[2]; 300mg/kg", "result": "106121.8 cells/mL and 78357.0 cells/mL and 70745.1 cells/mL and 93070.9 cells/mL and 117333.3 cells/mL and 57439.3 cells/mL and 69649.3 cells/mL and 44069.8 cells/mL"}, {"measurement": "IC50", "setting": "TNF [3]", "result": 202, "unit": "nM"}, {"measurement": "inhibition of wild-type TNF", "setting": "TNF [3]; 10 pM wild-type TNF, HEK NFκΒ reporter", "result": "inhibited"}, {"measurement": "CD45+ GR-1+ cells/mL in the peritoneal cavity", "setting": "mouse TNF; 10mg/kg", "result": "36683.8 cells/mL and 23446.5 cells/mL and 65459.0 cells/mL and 42287.7 cells/mL and 32860.3 cells/mL and 46170.3 cells/mL and 36366.5 cells/mL"}, {"measurement": "CD45+ GR-1+ cells/mL in the peritoneal cavity", "setting": "mouse TNF; 30mg/kg", "result": "68892.4 cells/mL and 37218.6 cells/mL and 45217.2 cells/mL and 30219.5 cells/mL and 27497.1 cells/mL and 16597.5 cells/mL"}, {"measurement": "CD45+ GR-1+ cells/mL in the peritoneal cavity", "setting": "mouse TNF; 100mg/kg", "result": "11514.8 cells/mL and 33134.0 cells/mL and 13657.2 cells/mL and 18518.9 cells/mL and 17977.4 cells/mL and 18837.9 cells/mL and 21785.8 cells/mL and 22316.6 cells/mL"}, {"measurement": "CD45+ GR-1+ cells/mL in the peritoneal cavity", "setting": "mouse TNF; 300mg/kg", "result": "6821.7 cells/mL and 12941.2 cells/mL and 5881.9 cells/mL and 6788.4 cells/mL and 5482.5 cells/mL and 47242.4 cells/mL and 15367.3 cells/mL and 2338.2 cells/mL"}, {"measurement": "dose with significant inhibition of neutrophil recruitment", "setting": "mouse TNF; oral, murine TNF i.p., CD45+GR1+ cells", "result": 10, "unit": "mg/kg"}, {"measurement": "RIP recruitment to TNFR signalling complex and phosphorylation of NF-κB", "setting": "[4]", "result": "markedly reduced"}]}]}
